Experimental data taken from patent US8592403B2, “Diazepine and diazocane compounds as MC4 agonists” (Pfizer Limited, priority 2008, dated 2013).
pEC50, pKi: −log10 of the molar value.

What was measured:
MC4 receptor = MC4 receptor (Homo sapiens, UniProt P32245); test: MC4 EC50 functional potency (protocol E of US2005/0176772 / WO 2005/077935); assay type: cell-based
Protocol: The compounds of formula (I) of the present invention have utility as MCR4 agonists in the treatment of various disease states.
MC5 and MC4 EC50 activity was determined as described by assay protocols D and E, respectively, in US2005/0176772 (pages 28-30).

MC3 receptor (MC3R) = target: T1, MC3 receptor (MC3R) (Homo sapiens, UniProt P41968); test: Nle4, D-Phe7-α-MSH inhibition at the MC3 receptor (competition binding, SPA, CHO-CRE MC3R membranes)
T1 construct: expressed in transfected cells; host or cells: CHO-CRE MC3R cells (membranes)
T1 sequence (P41968 whole entry): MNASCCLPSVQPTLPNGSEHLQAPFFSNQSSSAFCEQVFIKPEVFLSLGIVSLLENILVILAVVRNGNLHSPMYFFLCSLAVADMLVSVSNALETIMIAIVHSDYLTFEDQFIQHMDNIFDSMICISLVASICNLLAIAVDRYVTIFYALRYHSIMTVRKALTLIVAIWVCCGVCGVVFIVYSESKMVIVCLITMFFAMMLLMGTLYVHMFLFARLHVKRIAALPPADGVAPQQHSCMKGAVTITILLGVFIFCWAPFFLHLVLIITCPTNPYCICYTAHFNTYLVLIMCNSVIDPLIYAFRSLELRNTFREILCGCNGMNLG
Description: Nle4, D-Phe7-α-MSH Inhibition at the MC3 Receptor
Nle4, D-Phe7-α-MSH is a stable analogue of melanocyte-stimulating hormone (MSH), which is an agonist at the MC3 receptor (MC3R). Compounds can be evaluated for their ability to inhibit Nle4, D-Phe7-α-MSH binding to membranes from cells expressing the MC3R using a competition binding assay versus [^125I] Nle4, D-Phe7-α-MSH.
Cells expressing the MC3R were subject to homogenisation and the membrane fragment isolated by differential centrifugation. CHO-CRE MC3R cell membranes were coupled to PVT-PEI-WGA SPA Beads type A for 2 hours, spun at 1000 RPM for 5 mins and suspended to a final assay concentration of 800 ug bead/ml (1.2 ug membrane, 40 ug bead per well). Bead/membrane mix was incubated with 0.06 nM [^125I] Nle4, D-Phe7-α-MSH and 11 half-log concentrations of competitor ligand, in duplicate, in a total volume of 50 μl buffer per well (25 mM HEPES, 1 mM MgCl2, 2.5 mM CaCl2, 1% Pluronic F68, 1 complete EDTA protease inhibitor tablet/50 ml pH7). Non-specific binding was determined by the inclusion of 100 nM SHU9119. The reaction was initiated by the addition of bead/membranes and plates were incubated at room temperature for 12 hours (the first hour on a plate shaker), after which the amount of radioactivity present was determined using a Wallac plate counter. Ki values were determined by data analysis using appropriate software.

[1] = In vitro metabolism rate determination, human liver microsome (HLM) assay; assay type: in vitro ADME; conditions: human, liver microsomes, read-out: HLM: Clint, app
Description: In Vitro Metabolism Rate Determination (Human Liver Microsome (HLM); Rat Liver Microsome (RLM) Assay)
Many drugs are metabolised by the cytochrome P450 mono-oxygenase system. This enzyme is found in high concentrations in the liver and is bound to the endoplasmic reticulum of the hepatocyte. The enzyme system can be obtained in semi-purified state by the preparation of the hepatic microsomal fractions. Determining a compound's in vitro half-life in such a system provides a useful indicator of metabolic stability.
Methodology for In Vitro Rate Determination Using Hepatic & Supermix Microsomes
The method outlined below is for a total incubation volume of 1.5 ml.
1. The following mixture is prepared in a test tube:
2. Defrost microsomes at room temperature and add sufficient microsomes to give a final concentration of 0.5 nmol cytochrome P450/ml of incubation e.g. for a 1.5 ml incubation, the volume of microsomes to be added is:
3. Add sufficient MilliQ water to give a total incubation volume of 1.425 ml.
6. Add substrate to the incubation. The substrate should be at an initial concentration of 1 μM. The volume of substrate required in the remaining 1.162.5 ml incubation is calculated as follows: […]
8. Pre-incubate the tube containing the incubation mix, also positive control and no cofactor tubes in the thermostatically controlled shaking water bath set at 37° C. for approx 5 min.
9. Add NADP to initiate reaction (75 μl to each 1.162.5 ml incubation mix, 12.5 μl to positive control tube and 5 μl to no substrate tube) and take first time point immediately. The PNA positive control, no cofactor control and no substrate tubes are incubated for the total incubation time.
10. Remove 100 μl aliquots up to 9 different sampling points from 0 to 60 min (usually 0, 3, 5, 10, 15, 20, 30, 45 & 60 min) and terminate reaction. Longer incubation times can be used, but, after 120 min the microsomes deteriorate. The reaction may be terminated by addition of organic solvent, acid or base. At the end of the incubation process the no cofactor and no substrate controls in a similar manner i.e. terminate with the same reagent.
11. Analyse samples (including no cofactor and no substrate control) by a specific assay for the substrate to determine the disappearance kinetics.
Data obtained using the procedure described above can be quantified in terms of the substrates in vitro intrinsic clearance (Clint). Providing that the substrate concentration is below Km, the metabolism should be 1st order giving a log-linear plot of substrate disappearance with time.
The gradient of this line is the first order rate constant (k) for the substrate disappearance and is determined by regression analysis. This rate constant can be converted to the half-life according to the following equation.
Alternatively the rate constant can be converted to an intrinsic clearance (Clint) according to the following equation:— Clint(μl/min/mg)=(k/protein concentration in incubation (mg/ml))*1000

CYP3A4 = target: T2, CYP3A4 (Homo sapiens, UniProt P08684); test: High density DDI 3 μM cocktail screen in human liver microsomes, midazolam probe; assay type: in vitro ADME; conditions: human, liver microsomes, probe midazolam, read-out: % inhibition 3A4 @ 3 μM
T2 construct: utilizes human liver microsomes together with isoform-specific clinical drug probes; from tissue; host or cells: human liver microsomes
T2 sequence (P08684 whole entry, canonical isoform): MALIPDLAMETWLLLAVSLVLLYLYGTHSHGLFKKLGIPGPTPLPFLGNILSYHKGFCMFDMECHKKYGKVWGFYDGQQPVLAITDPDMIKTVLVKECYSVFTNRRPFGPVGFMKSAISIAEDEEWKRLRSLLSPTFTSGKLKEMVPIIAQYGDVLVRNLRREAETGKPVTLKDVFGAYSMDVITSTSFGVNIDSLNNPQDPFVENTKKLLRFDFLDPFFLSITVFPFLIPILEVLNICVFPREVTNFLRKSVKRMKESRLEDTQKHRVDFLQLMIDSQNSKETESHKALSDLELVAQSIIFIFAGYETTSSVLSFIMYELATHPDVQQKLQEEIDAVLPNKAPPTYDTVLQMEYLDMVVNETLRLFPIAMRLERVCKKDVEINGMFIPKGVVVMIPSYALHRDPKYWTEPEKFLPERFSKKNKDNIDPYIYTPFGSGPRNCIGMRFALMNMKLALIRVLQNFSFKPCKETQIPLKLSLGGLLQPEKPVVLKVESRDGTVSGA
Protocol: High Density Drug-Drug Interactions (DDI) 3 μM Cocktail Screen
A drug interaction is a situation in which a substance affects the activity of another drug, i.e. the effects are increased or decreased, or together they produce a new effect that neither produces on its own. Drug interactions may be the result of various processes but a relatively common one is where one drug affects the pharmacokinetics of another by inhibiting the cytochrome P450 that metabolises it. Because of the importance of these phenomena, assessment of the DDI potential for new chemical entities (NCEs) is considered important early on in the drug discovery process.
The DDI cocktail screen in human liver microsomes (HLM) is run in a fully automated fashion and the aim of the screen is to provide a single-point assessment of the DDI potential of new chemical entity (NCE; tested at […]) against the 4 primary cytochrome P450 enzymes, 1A2, 2D6, 2C9 and 3A4.
The substrate cocktail approach for P450 DDI utilizes human liver microsomes together with isoform-specific clinical drug probes and permits the simultaneous measurement of the inhibition of P450 1A2, 2C9, 2D6 & 3A4 activities in a single incubation. This is run in high throughput with simultaneous detection of metabolites by LC-MS/MS. This method has been thoroughly tested and evaluated using standard compounds.
Appearance of the metabolite of each substrate is measured over time in the presence and absence of the NCE (test compound/inhibitor) at a concentration of 3 μM. The compounds are assessed for their inhibitory potential as a percentage value and interpreted using the following scheme.

Chain of MC4 receptor (P32245 whole entry): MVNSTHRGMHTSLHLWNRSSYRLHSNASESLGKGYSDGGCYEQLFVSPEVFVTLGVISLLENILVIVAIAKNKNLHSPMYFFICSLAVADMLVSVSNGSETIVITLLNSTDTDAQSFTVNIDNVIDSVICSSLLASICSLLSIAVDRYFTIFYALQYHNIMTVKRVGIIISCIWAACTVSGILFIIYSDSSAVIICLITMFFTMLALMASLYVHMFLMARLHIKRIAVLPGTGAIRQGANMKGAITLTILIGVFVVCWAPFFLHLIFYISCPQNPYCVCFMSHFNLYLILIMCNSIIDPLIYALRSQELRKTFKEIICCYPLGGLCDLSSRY

Structure (SMILES)	pEC50 (MC4 receptor)	pKi (MC3 receptor (MC3R))	microsomal CLint at 1 μM [1] [µL/min/mg]	inhibition at 3 µM (CYP3A4) [%]
CC(C)(C)N1C[C@@H](C(=O)N2CCC[C@@H](c3ccc(Cl)cc3)N(C(=O)CC3CC3)CC2)[C@H](c2ccc(F)cc2F)C1 [Example 65]	7.78	5.16	23.1	–
COC(=O)N1CCN(C(=O)[C@@H]2CN(c3ccc4nncn4n3)C[C@H]2c2ccc(Cl)cn2)CCC[C@@H]1c1ccc(Cl)cc1 [Example 51]	8.48	6.67	–	75.2
CC(C)(C)N1C[C@@H](C(=O)N2CCC[C@@H](c3ccc(Cl)cc3)N(C(=O)C3CC3)CC2)[C@H](c2ccc(F)cc2F)C1 [Example 7]	7.92	5.00	26.2	–
COC(=O)N1CCN(C(=O)[C@@H]2CN(c3cccnn3)C[C@H]2c2ccc(OC)cc2F)CCC1c1ccc(Cl)cc1 (mixture of isomers) [Example 95]	8.09	5.39	41.7	41.9
CCN(CC)C(=O)N1CCN(C(=O)[C@@H]2CN(C(C)(C)C)C[C@H]2c2ccc(F)cc2F)CCC[C@H]1c1ccc(Cl)cc1 [Example 44, 4-{[(3S,4R)-1-tert-butyl-4-(2,4-difluorophenyl)pyrrolidin-3-yl]carbonyl}-8S-(4-chlorophenyl)-N,N-diethyl-1,4-diazocane-1-carboxamide]	8.25	–	173	54.5
COc1ccc([C@@H]2CN(c3cccnn3)C[C@H]2C(=O)N2CCC(c3ccc(Cl)cc3)N(S(C)(=O)=O)CC2)c(F)c1 (mixture of isomers) [Example 94]	7.59	5.17	78.1	46.6
COc1ccc([C@@H]2CN(c3cccnn3)C[C@H]2C(=O)N2CCC(c3ccc(Cl)cc3)N(C(C)=O)CC2)c(F)c1 (mixture of isomers) [Example 93]	7.84	5.31	29.3	18.9
CS(=O)(=O)N1CCN(C(=O)[C@@H]2CN(c3ccc(C#N)nn3)C[C@H]2c2ccc(F)cc2F)CCCC1c1ccc(F)cc1 (mixture of isomers) [Example 77]	7.26	–	43	56.5
CCC(=O)N1CCN(C(=O)[C@@H]2CN(c3ccc(=O)n(C)n3)C[C@H]2c2ccc(OC)cc2F)CCC[C@H]1c1ccc(Cl)cc1 [Example 28]	8.47	–	21.5	40.8
CC(C)C(=O)N1CCN(C(=O)[C@@H]2CN(c3ccc(=O)n(C)n3)C[C@H]2c2ccc(F)cc2F)CCC[C@H]1c1ccc(Cl)cc1 [Example 33, 6-[(3S,4R)-3-{[5S-(4-chlorophenyl)-4-isobutyryl-1,4-diazocan-1-yl]carbonyl}-4-(2,4-difluorophenyl)pyrrolidin-1-yl]-2-methylpyridazin-3(2H)-one]	8.46	–	17	45.2
CC(C)(C)N1C[C@@H](C(=O)N2CCC[C@@H](c3ccc(Cl)cc3)N(C(=O)C3CC(F)(F)C3)CC2)[C@H](c2ccc(F)cc2F)C1 [Example 61]	7.60	–	13.9	40
COC(=O)N1CCN(C(=O)[C@@H]2CN(c3ccc(=O)n(C)n3)C[C@H]2c2ccc(Cl)cn2)CCC[C@H]1c1ccc(Cl)cc1 [Example 47, methyl 8S-(4-chlorophenyl)-4-{[(3S,4S)-4-(5-chloropyridin-2-yl)-1-(1-methyl-6-oxo-1,6-dihydropyridazin-3-yl)pyrrolidin-3-yl]carbonyl}-1,4-diazocane-1-carboxylate]	8.29	–	20.6	54.2
CC(C)C(=O)N1CCN(C(=O)[C@@H]2CN(c3ccc(=O)n(C)n3)C[C@H]2c2ccc(Cl)cn2)CCC[C@H]1c1ccc(Cl)cc1 [Example 37, 6-[(3S,4S)-3-{[5S-(4-chlorophenyl)-4-isobutyryl-1,4-diazocan-1-yl]carbonyl}-4-(5-chloropyridin-2-yl)pyrrolidin-1-yl]-2-methylpyridazin-3(2H)-one]	8.68	–	13.9	42.3
CC(C)(C)N1C[C@@H](C(=O)N2CCC[C@@H](c3ccc(Cl)cc3)N(C(=O)N3CCOCC3)CC2)[C@H](c2ccc(F)cc2F)C1 [Example 46]	7.71	–	71.1	27.3
CCC(=O)N1CCN(C(=O)[C@@H]2CN(C(C)(C)C)C[C@H]2c2ccc(Cl)cn2)CCC[C@H]1c1ccc(Cl)cc1 [Example 19]	7.19	–	62.6	41
COC(=O)N1CCN(C(=O)[C@@H]2CN(c3ccc(C#N)nn3)C[C@H]2c2ccc(F)cc2F)CCC[C@H]1c1ccc(Cl)cc1 [Example 55]	8.29	6.81	9.75	70.6
